Reference: patent US20220023274A1, “USE OF A BERBERIS AND RESVERATROL MIXTURE TO CONTROL DYSLIPIDEMIA” (priority 2018, published 2022)

Tests used:
[1] = system: Low-Density lipoprotein Receptor (LDL-R); assay: Transcriptional expression of the LDL receptor in hepatocytes in vitro (Example 1, FIG. 1); format: cell-based; conditions: 24 hours, Berberine 5 μg/mL, Resveratrol 3 μM, each applied alone, vs CTRL (no treatments)
Description: It could be said that the concentration tested is bio-equivalent to that of Berberine with a concentration of 50% higher than that administered according to the work of Kong et to 2004. (Kong W, Wei J, Abidi P, Lin M, Inaba S, Li C, Wang Y, Wang Z, Si S, Pan H, 10 Wang S, Wu J, Wang Y, Li Z, Liu J, Jiang J D. Berberine is a novel cholesterol-lowering drug working through a unique mechanism distinct from statins. Nat Med. 2004 December; 10(12):1344-51)).
Resveratrol being without effect alone is therefore a synergy, never observed before. The innovation is therefore in having observed a synergy between resveratrol and berberine with resveratrol which enhances the effects of berberine in the expression of LDL-R. The results are summarized in FIG. 1.

LDL cholesterol = assay: Case report: LDL cholesterol level under dietary supplementation (Example 9); format: in vivo, human; conditions: The patient, initial LDL cholesterol 3.91 mM; berberine 500 mg for 1 month; Revifast dosage as in examples 2-5
Procedure: […] The patient is […] and is classified borderline for the lipid profile with an LDL cholesterol level of 3.91 mM. In their dietary supplement scheme, they took a berberine 500 mg supplement separately for 1 month, taking lipoprotein levels to 3.4 mM. […] The quantities assumed by […] FG are such that the dosage used is that shown in examples 2-5.

plasma LDL concentration = assay: Case reports of subjects (n=4): plasma LDL concentration, reduction compared to nontreated condition (FIG. 2); format: in vivo, human; conditions: n=4 subjects; berberine 500 mg alone or with 48 mg resveratrol (pure, or as 160 mg REVIFAST)
Description: Information were also collected from case reports of a number of subjects supplemented in their diet substantially as above.
As it can be seen, when the subjects are supplemented with berberine the levels of LDL cholesterol were reduced. […] It is therefore believed that it is the way in which resveratrol is absorbed that influences the synergistic action of resveratrol to reduce LDL cholesterol by berberine.

Structure (SMILES) | transcription of the LDL receptor (effect in words) [1] | LDL cholesterol level (plasma concentration) (LDL cholesterol) | effect on plasma LDL cholesterol (in words) (plasma LDL concentration)
COc1ccc2cc3[n+](cc2c1OC)CCc1cc2c(cc1-3)OCO2 [Berberine] | tends to increase | 3.4 mM | reduced
Oc1ccc(C=Cc2cc(O)cc(O)c2)cc1 [resveratrol, 3,5,4′-trihydroxystilbene] | no apparent effect |  | 
